Experimental data taken from PubChem BioAssay (NCI).
Where “and” joins values, the source holds several entries; their conditions need not be identical. Equal entries are not always repeated.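 96-well plates; 48 h exposure; 5 concentrations. Endpoints by linear interpolation between flanking doses. Not reached: highest tested concentration assigned. Abbreviation: GI50, concentration required for 50% inhibition of growth. TGI: concentration producing complete growth inhibition.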

How the values were obtained:
Test in all cases: NCI anticancer screen, dose series, 48 h
SK-OV-3 ovarian = tested on: SK-OV-3 ovarian
SF-295 CNS = tested on: SF-295 CNS
RXF 393 renal = tested on: RXF 393 renal
SK-MEL-28 melanoma = tested on: SK-MEL-28 melanoma
CCRF-CEM leukemia = tested on: CCRF-CEM leukemia
MCF7 breast = tested on: MCF7 breast
UACC-62 melanoma = tested on: UACC-62 melanoma
T-47D breast = tested on: T-47D breast
HL-60(TB) leukemia = tested on: HL-60(TB) leukemia
NCI-H226 lung = tested on: NCI-H226 lung

Compound	GI50 (SK-OV-3 ovarian) [µM]	TGI (SK-OV-3 ovarian)	GI50 (SF-295 CNS) [µM]	TGI (SF-295 CNS)	GI50 (RXF 393 renal) [µM]	TGI (RXF 393 renal)	GI50 (SK-MEL-28 melanoma) [µM]	TGI (SK-MEL-28 melanoma)	GI50 (CCRF-CEM leukemia) [µM]	TGI (CCRF-CEM leukemia)	GI50 (MCF7 breast) [µM]	TGI (MCF7 breast) [µM]	GI50 (UACC-62 melanoma) [µM]	TGI (UACC-62 melanoma)	GI50 (T-47D breast) [µM]	TGI (T-47D breast) [µM]	GI50 (HL-60(TB) leukemia) [µM]	TGI (HL-60(TB) leukemia)	GI50 (NCI-H226 lung) [µM]	TGI (NCI-H226 lung)
Cc1cc(N2CCCCC2)nc(N(CCNc2ccnc3cc(Cl)ccc23)Cc2ccco2)n1	2.15	4.9 µM	1.51	3.12 µM	1.56	3.32 µM	1.83	3.75 µM	2.47	8.76 µM	1.59	3.19	1.74	3.34 µM	1.82	4.32	1.91	3.94 µM	1.69	3.96 µM
CCn1c(-c2nonc2N)nc2cncc(C(=O)N3CCNCC3)c21	> 25	> 25 µM	> 25	> 25 µM	> 25	> 25 µM	> 25	> 25 µM	> 25	> 25 µM	> 25	> 25	> 25	> 25 µM	> 25	> 25	> 25	> 25 µM	> 25	> 25 µM
O=C(CCl)c1ccc([N+](=O)[O-])o1	14.9	30.5 µM	5.26	17.4 µM	2.2	8.24 µM	1.61	3.14 µM	0.932	2.51 µM	1.87	5.82	2.13	5.62 µM	1.89	4.78	1.64		2.45	7.05 µM
COc1ccc(C(=O)/C=C/c2ccc(Cl)cc2)cc1S(=O)(=O)Nc1c(N)nc(SC)[nH]c1=O	3.65	13.4 µM	2.72	8.91 µM	1.6	3.26 µM	2.1	4.97 µM	2.66	8.97 µM	1.97	8.25	2.33	6.65 µM	2.45	9.83	3.2	16.1 µM	2.34	8.36 µM
COc1cccc(C2=C(c3cn(C)c4ccccc34)C(=O)NC2=O)c1	12.7	> 25 µM	11	> 25 µM	6.43	> 25 µM	> 21.7	> 25 µM	9.01	> 25 µM	6.35	> 25	11.5	> 25 µM	6.82	> 25	11.2	> 25 µM	7.96	> 25 µM
CCCN1C(=O)/C(=c2\sc3n(c2=O)C2C(NN=3)N(CC)C(=O)N2CC)c2ccccc21 (stereo not drawn)	0.737	14.9 µM	0.409	10.7 µM	0.277	3.23 µM	1.18	29.1 µM	0.423	> 100 µM	0.396	> 32.9	0.489	17.4 µM	0.438	> 88.7	0.3	1.03 µM	1.45	> 33 µM
O=C(O)CS(=O)(=O)C(c1ccccc1)c1ccccc1		> 100 µM		> 100 µM		> 100 µM		> 100 µM		> 100 µM		> 100		> 100 µM		> 100		> 100 µM		> 100 µM
CCOC(=O)Cc1c[nH]c(=S)[nH]c1=O	> 100	> 100 µM	> 100	> 100 µM	> 100	> 100 µM	> 100	> 100 µM	> 100	> 100 µM	> 100	> 100	> 100	> 100 µM	> 100	> 100	> 100	> 100 µM	> 100	> 100 µM
C=C(C)[C@@H]1CC=C(CO)CC1	> 10	> 10 µM and 2570 µM	> 10	> 10 µM and 941 µM	> 10	> 10 µM and 569 µM	> 10	> 10 µM and 829 µM	> 10	> 10 µM and 440 µM		> 10	> 10	> 10 µM and 964 µM		> 10	> 10	> 10 µM and 267 µM	> 10	> 10 µM and 1090 µM
CCN(CC)c1ccc(/C=C/c2cc(C)c3ccccc3n2)cc1	3.41	17.8 µM	1.8	5.72 µM	3.43	9.44 µM	6.75	> 100 µM	2.85	87.8 µM	2.31	75.8	3.31	22.6 µM	4.46	> 100	3.42	27.8 µM	11.9	91.3 µM
CC1=CC(=O)c2c(O)cccc2C1=O		27.2 µM		23.9 µM		3.07 µM		3.28 µM		0.621 µM		3.9		3.4 µM		2.22		0.398 µM		24.6 µM
CC[C@](C)(O)C(=O)O[C@H]1C(=O)O[C@@H]2C[C@H]3C(C)=CC(=O)[C@@H](O)[C@]3(C)[C@H]3[C@@]4(O)OC[C@]32[C@@H]1[C@@H](C)[C@H]4O	1.34	13.9 µM and 4.29 µM	0.296	2.6 µM and 0.351 µM	0.285		0.0609	0.264 µM and 0.16 µM	0.0897		0.335		0.149	0.705 µM and 0.178 µM		3.78	0.104	4.11 µM and 1.09 µM	0.203	0.664 µM and 0.435 µM
